ChEMBL document CHEMBL6134911, “Broad Target Screening Reveals Abundance of FKBP12-Based Molecular Glues in Focused Libraries” (J Med Chem, 2025)
pKd: −log10 of the molar value. One block for each compound: values may come before it. Calls of active or inactive are those of the source. The calls are words filed in the database; no cut-off is given here.

Experiments:
[1] = Competitive molecular glue activity at fluorescein maleimide-labeled FKBP12 C22V/E108C mutant (unknown origin)/6 His-tagged BRD4 BD2 domain (unknown origin) assessed as ternary complex formation by measuring dissociation constant incubated for 30 mins by fluorescence polarization analysis; set-up: species or system Homo sapiens
Homo sapiens [2] = species on record: Homo sapiens; experiment: Competitive molecular glue activity at fluorescein maleimide-labeled FKBP12 C22V/E108C mutant (unknown origin)/6 His-tagged PTPRN (unknown origin) assessed as ternary complex formation incubated for 30 mins by fluorescence polarization analysis
Homo sapiens [3] = species on record: Homo sapiens; experiment: Competitive molecular glue activity at fluorescein maleimide-labeled FKBP12 C22V/E108C mutant (unknown origin)/6 His-tagged PTPRN (unknown origin) assessed as ternary complex formation incubated for 30 mins in presence of FKBP12 ligand 18(S)-Me 29 by fluorescence polarization analysis
Homo sapiens [4] = species on record: Homo sapiens; experiment: Competitive molecular glue activity at Strep-tagged EGFP-FKBP12 (unknown origin) extracted from Escherichia coli BL21 gold cells/6 His-tagged PTPRN (unknown origin) assessed as ternary complex formation incubated for 30 mins by HTRF assay
Homo sapiens [5] = species on record: Homo sapiens; experiment: Competitive molecular glue activity at fluorescein maleimide-labeled FKBP12 C22V/E108C mutant (unknown origin)/6 His-tagged BRD4 BD2 domain (unknown origin) assessed as ternary complex formation incubated for 30 mins in presence of JQ1 by fluorescence polarization analysis
[6] = biological target: Bromodomain-containing protein 4 (Homo sapiens) (UniProt O60885); experiment: Displacement of fluorescent JQ1 from BRD4 BD2 (unknown origin) incubated for 30 mins by fluorescence polarization analysis
Homo sapiens [7] = species on record: Homo sapiens; experiment: Competitive molecular glue activity at fluorescein maleimide-labeled FKBP12 C22V/E108C mutant (unknown origin)/6 His-tagged BRD4 BD2 domain (unknown origin) assessed as ternary complex formation incubated for 30 mins in presence of FKBP12 ligand 18(S)-Me 29 by fluorescence polarization analysis
Homo sapiens [8] = species on record: Homo sapiens; experiment: Competitive molecular glue activity at fluorescein maleimide-labeled FKBP12 C22V/E108C mutant (unknown origin)/6 His-tagged BRD4 BD1 domain (unknown origin) assessed as ternary complex formation incubated for 30 mins by fluorescence polarization analysis
Homo sapiens [9] = species on record: Homo sapiens; experiment: Competitive molecular glue activity at fluorescein maleimide-labeled FKBP12 C22V/E108C mutant (unknown origin)/6 His-tagged MBP-STAT4 (unknown origin) assessed as ternary complex formation incubated for 30 mins in presence of FKBP12 ligand 18(S)-Me 29 by fluorescence polarization analysis
Homo sapiens [10] = species on record: Homo sapiens; experiment: Competitive molecular glue activity at Strep-tagged EGFP-FKBP12 (unknown origin) extracted from Escherichia coli BL21 gold cells/6 His-tagged MBP-STAT4 (unknown origin) assessed as ternary complex formation incubated for 30 mins by HTRF assay
Homo sapiens [11] = species on record: Homo sapiens; experiment: Competitive molecular glue activity at fluorescein maleimide-labeled FKBP12 C22V/E108C mutant (unknown origin)/6 His-tagged MBP-STAT4 (unknown origin) assessed as ternary complex formation incubated for 30 mins by fluorescence polarization analysis
Homo sapiens [12] = species on record: Homo sapiens; experiment: Competitive molecular glue activity at fluorescein maleimide-labeled FKBP12 C22V/E108C mutant (unknown origin)/6 His-tagged BRD4 BD2 domain (unknown origin) assessed as ternary complex formation incubated for 30 mins by fluorescence polarization analysis
Homo sapiens [13] = species on record: Homo sapiens; experiment: Competitive molecular glue activity at Strep-tagged EGFP-FKBP12 (unknown origin) extracted from Escherichia coli BL21 gold cells/6 His-tagged BRD4 BD2 domain (unknown origin) assessed as ternary complex formation incubated for 30 mins by HTRF assay

SMILES: C=C[C@@H]1CN(Cc2cn(-c3ccc(N(C)C)cc3)nn2)C(=O)[C@@H]2CCC[C@H]1N2S(=O)(=O)c1cc(Cl)cc(Cl)c1
- pKd [1]: 3.94

SMILES: COc1ccc(CC[C@@H](OC(=O)[C@@H]2CCCCN2S(=O)(=O)c2cc3c(c([N+](=O)[O-])c2)OCC3)c2cccc(CC(=O)O)c2)cc1OC
- Activity (Homo sapiens [2]): Dose-dependent-effect
- Activity (Homo sapiens [3]): inactive
- Activity (Homo sapiens [4]): Dose-dependent-effect

SMILES: C=C[C@@H]1CN(Cc2cn(-c3ccc(OC(C)C)cc3)nn2)C(=O)[C@@H]2CCC[C@H]1N2S(=O)(=O)c1cc(Cl)cc(Cl)c1
- pKd [1]: 3.84

SMILES: C=C[C@H]1CN(Cc2ccccn2)C(=O)[C@@H]2CCC[C@H]1N2S(=O)(=O)c1cc(-c2ccccc2)c2nc(-c3ccccc3)sc2c1
- Activity (Homo sapiens [9]): inactive
- Activity (Homo sapiens [10]): Dose-dependent-effect
- Activity (Homo sapiens [11]): Dose-dependent-effect

SMILES: C=C[C@@H]1CN(Cc2cn(-c3cc(OC)c(OC)c(OC)c3)nn2)C(=O)[C@@H]2CCC[C@H]1N2S(=O)(=O)c1cc(Cl)cc(Cl)c1
- pKd [1]: < 3.30

SMILES: C=C[C@@H]1CN(Cc2cn(-c3ccc(OC)cc3)nn2)C(=O)[C@@H]2CCC[C@H]1N2S(=O)(=O)c1cc(Cl)cc(Cl)c1
- pKd [1]: 3.40
- Activity (Homo sapiens [7]): inactive
- Activity (Homo sapiens [12]): Dose-dependent-effect
- Activity (Homo sapiens [13]): Dose-dependent-effect

SMILES: C=C[C@@H]1CN(Cc2cn(-c3ccc4[nH]ncc4c3)nn2)C(=O)[C@@H]2CCC[C@H]1N2S(=O)(=O)c1cc(Cl)cc(Cl)c1
- pKd [1]: 4.02

Results, then the compound that gave them:

- pKd [1]: 4.33
SMILES: C=C[C@@H]1CN(Cc2cn(-c3ccc(C(C)=O)cc3)nn2)C(=O)[C@@H]2CCC[C@H]1N2S(=O)(=O)c1cc(Cl)cc(Cl)c1

- pKd [1]: 4.66
SMILES: C=C[C@@H]1CN(Cc2cn(-c3ccc(C(C)=O)c(OC)c3)nn2)C(=O)[C@@H]2CCC[C@H]1N2S(=O)(=O)c1cc(Cl)cc(Cl)c1

- pKd [1]: 4.57
- Activity (Homo sapiens [5]): inactive
- Activity [6]: inactive
- Activity (Homo sapiens [7]): inactive
- Activity (Homo sapiens [8]): inactive
SMILES: C=C[C@@H]1CN(Cc2cn(-c3ccc(OC)c(OC)c3)nn2)C(=O)[C@@H]2CCC[C@H]1N2S(=O)(=O)c1cc(Cl)cc(Cl)c1

- pKd [1]: 4.08
SMILES: C=C[C@@H]1CN(Cc2cn(-c3ccc(OC)c(Cl)c3)nn2)C(=O)[C@@H]2CCC[C@H]1N2S(=O)(=O)c1cc(Cl)cc(Cl)c1
